From patent US20100168084A1, “Therapeutic compounds and related methods of use” (priority 2008, published 2010)
Like-named read-outs stand apart in the source and are kept apart here.

Target: T1, sirtuin protein (Homo sapiens, UniProt Q96EB6)
T1 sequence (Q96EB6 2-747 limits assumed): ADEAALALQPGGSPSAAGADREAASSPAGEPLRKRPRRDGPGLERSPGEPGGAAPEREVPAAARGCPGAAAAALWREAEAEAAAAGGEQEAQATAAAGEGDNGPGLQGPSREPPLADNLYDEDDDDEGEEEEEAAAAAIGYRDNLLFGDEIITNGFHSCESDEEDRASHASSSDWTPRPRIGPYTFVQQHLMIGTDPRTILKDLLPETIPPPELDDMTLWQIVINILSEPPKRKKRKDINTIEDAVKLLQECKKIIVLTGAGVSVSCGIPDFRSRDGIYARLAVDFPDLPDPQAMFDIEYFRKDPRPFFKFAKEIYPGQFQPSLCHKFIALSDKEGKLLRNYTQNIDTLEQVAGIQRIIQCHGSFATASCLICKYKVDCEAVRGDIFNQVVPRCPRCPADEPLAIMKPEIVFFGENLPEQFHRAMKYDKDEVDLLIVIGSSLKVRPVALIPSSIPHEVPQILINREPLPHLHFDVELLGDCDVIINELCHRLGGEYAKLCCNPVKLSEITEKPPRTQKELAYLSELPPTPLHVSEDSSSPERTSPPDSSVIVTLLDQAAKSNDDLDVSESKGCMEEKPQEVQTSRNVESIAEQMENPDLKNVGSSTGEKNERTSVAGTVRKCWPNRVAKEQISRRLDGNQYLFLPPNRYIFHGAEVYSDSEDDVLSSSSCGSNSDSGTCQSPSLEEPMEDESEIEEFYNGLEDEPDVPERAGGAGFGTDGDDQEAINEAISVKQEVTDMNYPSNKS
Assay: MS assay (IC50 MS ASSAY / ED50 MS / FOLD ACTIVATION MS)
Type: biochemical
Set-up: scale not given here

[1] = Table 4, class symbols A′, A, B, D, NA, legend not given
[2] = class symbols (A′, A, B, D, NA), no legend given
[3] = MS assay, class symbols, key not given
[4] = Table 4, class symbols A′, A, B, C, NA, legend not given

CC(=O)N1CCN(Cc2csc3nc(-c4ccccc4NC(=O)c4cnc5ccccc5n4)cn23)CC1 [Compound 651]
A′: ED50 MS ASSAY | ED50 MS ASSAY (Table 4) | ED50 MS ASSAY (Table 4, class symbols) | ED50 MS ASSAY [1] | ED50 MS ASSAY [2]

COc1cc(NC(=S)Nc2cc(-c3nc4ncccc4o3)ccn2)cc(OC)c1 [Compound 661]
A′: ED50 MS ASSAY | ED50 MS ASSAY (Table 4) | ED50 MS ASSAY (Table 4, class symbols) | ED50 MS ASSAY [1] | ED50 MS ASSAY [2]

O=C(Nc1ccccc1-c1cn2c(CNCC(O)CO)csc2n1)c1cnc2ccccc2n1 (stereo not shown) [Compound 676]
A′: ED50 MS ASSAY | ED50 MS ASSAY (Table 4) | ED50 MS ASSAY (Table 4, class symbols) | ED50 MS ASSAY [1] | ED50 MS ASSAY [2]

O=C(Nc1ccccc1-c1cn2c(CCN3CCNCC3)csc2n1)c1cnc2ccccc2n1 [Compound 680]
A′: ED50 MS ASSAY | ED50 MS ASSAY (Table 4) | ED50 MS ASSAY (Table 4, class symbols) | ED50 MS ASSAY [1] | ED50 MS ASSAY [2]

N#Cc1cccc(C(=O)Nc2ccccc2-c2nc3cc(CN4CCOCC4)cnc3s2)c1 [Compound 685]
A′: ED50 MS ASSAY | ED50 MS ASSAY [3] | ED50 MS ASSAY (Table 4) | ED50 MS ASSAY [4]

O=C(Nc1ccccc1-c1cn2c(CN3CCNCC3)csc2n1)c1cc(F)cc(F)c1 [Compound 695]
A′: ED50 MS ASSAY | ED50 MS ASSAY [3] | ED50 MS ASSAY (TABLE 4) | ED50 MS ASSAY (Table 4) | ED50 MS ASSAY [4]

O=C(Nc1ccccc1-c1cn2c(CN3CCNCC3)csc2n1)c1cccc(OC(F)(F)F)c1 [Compound 698]
A′: ED50 MS ASSAY | ED50 MS ASSAY [3] | ED50 MS ASSAY (TABLE 4) | ED50 MS ASSAY (Table 4) | ED50 MS ASSAY [4]

Cc1csc2nc(-c3ccccc3NC(=O)c3cnc4ccccc4n3)cn12 [Compound 707]
A′: ED50 MS ASSAY | ED50 MS ASSAY [3] | ED50 MS ASSAY (TABLE 4) | ED50 MS ASSAY (Table 4) | ED50 MS ASSAY [4]

O=C(Nc1ccccc1-c1cn2c(CN3CCNCC3)csc2n1)c1ccc(-c2ccccc2)cc1 [Compound 708]
A′: ED50 MS ASSAY | ED50 MS ASSAY [3] | ED50 MS ASSAY (TABLE 4) | ED50 MS ASSAY (Table 4) | ED50 MS ASSAY [4]

O=C(Nc1ccccc1-c1cn2c(CN3CCNCC3)csc2n1)c1cccc(-c2ccccc2)c1 [Compound 710]
A′: ED50 MS ASSAY | ED50 MS ASSAY [3] | ED50 MS ASSAY (TABLE 4) | ED50 MS ASSAY (Table 4) | ED50 MS ASSAY [4]

O=C(Nc1ccccc1-c1cn2c(CN3CCSC3)csc2n1)c1cnc2ccccc2n1 [Compound 715]
A′: ED50 MS ASSAY | ED50 MS ASSAY [3] | ED50 MS ASSAY (TABLE 4) | ED50 MS ASSAY (Table 4) | ED50 MS ASSAY [4]

NC1CCN(Cc2csc3nc(-c4ccccc4NC(=O)c4cnc5ccccc5n4)cn23)CC1 [Compound 716]
A′: ED50 MS ASSAY | ED50 MS ASSAY [3] | ED50 MS ASSAY (TABLE 4) | ED50 MS ASSAY (Table 4) | ED50 MS ASSAY [4]

COc1cc(OC)cc(C(=O)Nc2ccccc2-c2nc3cc(CN(C)C)cnc3s2)c1 [Compound 722]
A′: ED50 MS ASSAY | ED50 MS ASSAY [3] | ED50 MS ASSAY (TABLE 4) | ED50 MS ASSAY (Table 4) | ED50 MS ASSAY [4]
